Measurements: patent publication US20180244699A1, “1-HYDROXY-3H-2,1-BENZOXABOROLE DERIVATIVES AND THEIR USE AS MICROBIOCIDES” (Syngenta Participations AG, priority 2015, published 2018)

Experiments:
Format in all cases: cell-based
[1] = system: Glomerella lagenarium (Colletotrichum lagenarium); assay: Glomerella lagenarium (Colletotrichum lagenarium) / liquid culture (anthracnose); conditions: Colletotrichum orbiculare, growth inhibition photometrically 3-4 days after application, compared to untreated control
Protocol: 3. Glomerella lagenarium (Colletotrichum lagenarium)/Liquid Culture (Anthracnose) Conidia of the fungus from cryogenic storage are directly mixed into nutrient broth (PDB potato dextrose broth). After placing a (DMSO) solution of test compound into a microtiter plate (96-well format), the nutrient broth containing the fungal spores is added. The test plates are incubated at 24° C. and the inhibition of growth is measured photometrically 3-4 days after application.

Gaeumannomyces graminis = Gaeumannomyces graminis / liquid culture (take-all of cereals); conditions: growth inhibition photometrically 4-5 days after application, compared to untreated control
Protocol: 6. Gaeumannomyces Graminis/Liquid Culture (Take-all of Cereals) Mycelial fragments of the fungus from cryogenic storage were directly mixed into nutrient broth (PDB potato dextrose broth). After placing a (DMSO) solution of test compound into a microtiter plate (96-well format), the nutrient broth containing the fungal spores is added. The test plates are incubated at 24° C. and the inhibition of growth is determined photometrically 4-5 days after application.

[2] = system: Monographella nivalis (Microdochium nivale); assay: Monographella nivalis (Microdochium nivale) / liquid culture (foot rot cereals); conditions: growth inhibition photometrically 4-5 days after application, compared to untreated control
Protocol: 8. Monographella nivalis (Microdochium nivale)/Liquid Culture (Foot Rot Cereals) Conidia of the fungus from cryogenic storage are directly mixed into nutrient broth (PDB potato dextrose broth). After placing a (DMSO) solution of test compound into a microtiter plate (96-well format), the nutrient broth containing the fungal spores is added. The test plates are incubated at 24° C. and the inhibition of growth is determined photometrically 4-5 days after application.

Pythium ultimum = Pythium ultimum / liquid culture (seedling damping off); conditions: Globisporangium ultimum, growth inhibition photometrically 2-3 days after application, compared to untreated control
Method in brief: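 Fungal mycelia fragments and oospores from fresh liquid culture mixed into potato dextrose broth and added to DMSO solutions of test compound. Incubated at 24° C.; growth inhibition read photometrically 2-3 days after application.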

[3] = system: Mycosphaerella graminicola (Septoria tritici); assay: Mycosphaerella graminicola (Septoria tritici) / liquid culture (Septoria blotch); conditions: Zymoseptoria tritici, growth inhibition photometrically 4-5 days after application, compared to untreated control
Protocol: 18. Mycosphaerella graminicola (Septoria tritici)/Liquid Culture (Septoria Blotch) Conidia of the fungus from cryogenic storage are directly mixed into nutrient broth (PDB potato dextrose broth). After placing a (DMSO) solution of test compound into a microtiter plate (96-well format), the nutrient broth containing the fungal spores is added. The test plates are incubated at 24° C. and the inhibition of growth is determined photometrically 4-5 days after application.

Measured: inhibition of growth at 20 ppm

COc1c(C(=O)OCC(F)(F)F)ccc2c1B(O)OC2 [Compound 10, 2,2,2-trifluoroethyl 1-hydroxy-7-methoxy-3H-2,1-benzoxaborole-6-carboxylate]
≥ 80%: all assays above

COc1c(C(=O)OCCOc2ccc(Cl)cc2)ccc2c1B(O)OC2 [Compound 81, 2-(4-chlorophenoxy)ethyl 1-hydroxy-7-methoxy-3H-2,1-benzoxaborole-6-carboxylate]
≥ 80%: Gaeumannomyces graminis | [2] | Pythium ultimum

COc1c(C(=O)OCCOc2ccccc2C)ccc2c1B(O)OC2 [Compound 82, 2-(2-methylphenoxy)ethyl 1-hydroxy-7-methoxy-3H-2,1-benzoxaborole-6-carboxylate]
≥ 80%: all assays above

COc1c(C(=O)OCc2cccc(C(F)(F)F)c2)ccc2c1B(O)OC2 [Compound 88, [3-(trifluoromethyl)phenyl]methyl 1-hydroxy-7-methoxy-3H-2,1-benzoxaborole-6-carboxylate]
≥ 80%: Gaeumannomyces graminis | [2] | Pythium ultimum

COC(=O)Nc1ccc(COC(=O)c2ccc3c(c2OC)B(O)OC3)cc1 [Compound 90, [4-(methoxycarbonylamino)phenyl]methyl 1-hydroxy-7-methoxy-3H-2,1-benzoxaborole-6-carboxylate]
≥ 80%: Gaeumannomyces graminis | [2] | Pythium ultimum

COc1c(C(=O)OCc2c(Cl)cc(O)cc2Cl)ccc2c1B(O)OC2 [Compound 92, (2,6-dichloro-4-hydroxy-phenyl)methyl 1-hydroxy-7-methoxy-3H-2,1-benzoxaborole-6-carboxylate]
≥ 80%: Gaeumannomyces graminis | [2] | Pythium ultimum

COc1c(C(=O)OCC(C)(C)c2nnc(S)nc2O)ccc2c1B(O)OC2 [Compound 95, [2-(5-hydroxy-3-sulfanyl-1,2,4-triazin-6-yl)-2-methyl-propyl] 1-hydroxy-7-methoxy-3H-2,1-benzoxaborole-6-carboxylate]
≥ 80%: Gaeumannomyces graminis | [2] | Pythium ultimum

COc1c(C(=O)OCc2nc(C)cs2)ccc2c1B(O)OC2 [Compound 96, (4-methylthiazol-2-yl)methyl 1-hydroxy-7-methoxy-3H-2,1-benzoxaborole-6-carboxylate]
≥ 80%: Gaeumannomyces graminis | [2] | Pythium ultimum

CCCC1OCC(C)(COC(=O)c2ccc3c(c2OC)B(O)OC3)CO1 (stereo not drawn) [Compound 98, (5-methyl-2-propyl-1,3-dioxan-5-yl)methyl 1-hydroxy-7-methoxy-3H-2,1-benzoxaborole-6-carboxylate]
≥ 80%: Gaeumannomyces graminis | [2] | Pythium ultimum

COc1c(C(=O)OC2CC=CC2)ccc2c1B(O)OC2 [Compound 104, cyclopent-3-en-1-yl 1-hydroxy-7-methoxy-3H-2,1-benzoxaborole-6-carboxylate]
≥ 80%: all assays above

COc1c(C(=O)OCc2cc(C)cc(C)c2)ccc2c1B(O)OC2 [Compound 116, (3,5-dimethylphenyl)methyl 1-hydroxy-7-methoxy-3H-2,1-benzoxaborole-6-carboxylate]
≥ 80%: Gaeumannomyces graminis | [2] | Pythium ultimum

COc1c(C(=O)OCC2CC2C)ccc2c1B(O)OC2 (stereo not drawn) [Compound 118, (2-methylcyclopropyl)methyl 1-hydroxy-7-methoxy-3H-2,1-benzoxaborole-6-carboxylate]
≥ 80%: all assays above

C#CC(CC)OC(=O)c1ccc2c(c1OC)B(O)OC2 (stereo not drawn) [Compound 121, 1-ethylprop-2-ynyl 1-hydroxy-7-methoxy-3H-2,1-benzoxaborole-6-carboxylate]
not listed: [3]
≥ 80%: all other assays above

CCOC(=O)[C@H](C)OC(=O)c1ccc2c(c1OC)B(O)OC2 [Compound 125, [(1S)-2-ethoxy-1-methyl-2-oxo-ethyl] 1-hydroxy-7-methoxy-3H-2,1-benzoxaborole-6-carboxylate]
≥ 80%: Gaeumannomyces graminis | [2] | Pythium ultimum

COc1ccc(COC(=O)c2ccc3c(c2OC)B(O)OC3)cc1 [Compound 127, (4-methoxyphenyl)methyl 1-hydroxy-7-methoxy-3H-2,1-benzoxaborole-6-carboxylate]
not listed: [3]
≥ 80%: all other assays above

COc1ccccc1COC(=O)c1ccc2c(c1OC)B(O)OC2 [Compound 128, (2-methoxyphenyl)methyl 1-hydroxy-7-methoxy-3H-2,1-benzoxaborole-6-carboxylate]
≥ 80%: Gaeumannomyces graminis | [2] | Pythium ultimum

COc1c(C(=O)OCCC(C)C)ccc2c1B(O)OC2 [Compound 129, isopentyl 1-hydroxy-7-methoxy-3H-2,1-benzoxaborole-6-carboxylate]
≥ 80%: all assays above
